Laboratory results taken from patent US9376424B2, “Methods for treating post traumatic stress disorder” (AZEVAN PHARMACEUTICALS, INC., priority 2010, dated 2016).

Key:
human V1a receptor = target: T1, human V1a receptor (Homo sapiens, UniProt P37288); test: Human vasopressin V1a receptor binding assay (3H-AVP competition, hV1a cell line); conditions: CHO cells expressing human V1a, 1 nM 3H-AVP; for IC50: read-out: V1a Binding Affinity IC50; for Ki: read-out: V1a Ki
T1 construct: host or cells: CHO cells
Method: Human vasopression V1a receptor binding assay. A cell line expressing the human V1a receptor in CHO cells (henceforth referred to as the hV1a cell line) was obtained from Dr. Michael Brownstein, NIMH, Bethesda, Md., USA. The hV1a cDNA sequence is described by Thibonnier et al., Journal of Biological Chemistry, 269, 3304-3310 (1994), and the expression method was the same as described by Morel et al. (1992). The hV1a cell line was grown in alpha-MEM with 10% fetal bovine serum and 250 ug/ml G418 (Gibco, Grand Island, N.Y., USA). For competitive binding assay, hV1a cells were plated into 6-well culture plate at 1:10 dilution from a confluency flask, and maintained in culture for at least two days. Culture medium was then removed, cells were washed with 2 ml binding buffer (25 mM Hepes, 0.25% BSA, 1×DMEM, PH=7.0). To each well, 990 μl binding buffer containing 1 nM 3H-AVP was added, and followed by 10 μl series diluted Example compounds dissolved in DMSO. […] 100 nM cold AVP (Sigma) was used to assess non-specific binding. Cells were incubated for 45 minutes at 37° C., assay mixture was removed and each well was washed three times with PBS (pH=7.4). 1 ml 2% SDS was added per well and plates were let sit for 30 minutes. The whole content in a well was transferred to a scintillation vial. Each well was rinsed with 0.5 ml PBS which was then added to the corresponding vial. Scintillation fluid (Ecoscint, National Diagnostics, Atlanta, Ga.) was then added at 3 ml per vial. Samples were counted in a liquid scintillation counter (Beckman LS3801). IC50 values were calculated by Prism Curve fitting software.
All of the alkanedioic esters and amides exemplified in the foregoing examples dissolved in DMSO were tested in this assay. Binding curves were generated according to methods described by Thibonnier et al. (1994). [^3H]-AVP was added to the hV1a cell cultures followed by 10-fold dilutions of each test compound.

C57B1/6J males = test: Social Interaction Test after chronic social subjugation; format: in vivo, mouse; conditions: for Distance (traveled in the interaction zone, difference score Post-Pretest) / Time (in the interaction zone, difference score Post-Pretest): mice after 10 day defeat, daily i.p. for 28 days, AVN246-HCl 2 mg/kg, chlordiazepoxide 10 mg/kg
Text: Mouse Chronic Subordination Model of Depression. Social stress is a factor in the etiology of several psychopathologies, with individuals differing in vulnerability. Adult male mice are subjected to a model of chronic psychosocial stress in which resident/intruder dyads live chronically in sensory contact and physically interact on a daily basis.
Anti-depressant Effect in the Social Interaction Test. […] A rapid subjugation paradigm in mice lead to diminished social interaction behavior, where the dependent measures are distance traveled and time in the Interaction Zone. […] These observations are consistent with the subordination/social interaction model as a rapid behavioral screen for potential antidepressants. Additional details are described in Berton et al. (2006).
Briefly, C57B1/6J males were defeated daily for 10 days by resident, highly aggressive CF-1 males. After 5 minutes of direct exposure, a perforated plastic partition was inserted into the cage that allowed olfactory and visual contact without physical defeat for the remaining 23 hr 55 min each day. The C57 males were exposed to a different resident male in a different cage each day to increase the stress of the procedure (it was observed that all CF-1 males attacked the intruder each day). At the end of the 10 day defeat procedure, the C57 males were tested in an open field apparatus during the dark phase. A dominant male was caged in an area of the open field apparatus termed the “social interaction zone.” Time and distance traveled in the zone were recorded. The C57 males were then divided randomly among the following treatments: AVN246-HCl (2 mg/kg), saline vehicle (0.45%), or chlordiazepoxide (10 mg/kg). Treatments were given daily (i.p.) for 28 days and the animals were retested. Behavioral changes were determined by calculating difference scores (Post-Pretest) and these scores were analyzed.

T1 sequence (P37288 whole entry): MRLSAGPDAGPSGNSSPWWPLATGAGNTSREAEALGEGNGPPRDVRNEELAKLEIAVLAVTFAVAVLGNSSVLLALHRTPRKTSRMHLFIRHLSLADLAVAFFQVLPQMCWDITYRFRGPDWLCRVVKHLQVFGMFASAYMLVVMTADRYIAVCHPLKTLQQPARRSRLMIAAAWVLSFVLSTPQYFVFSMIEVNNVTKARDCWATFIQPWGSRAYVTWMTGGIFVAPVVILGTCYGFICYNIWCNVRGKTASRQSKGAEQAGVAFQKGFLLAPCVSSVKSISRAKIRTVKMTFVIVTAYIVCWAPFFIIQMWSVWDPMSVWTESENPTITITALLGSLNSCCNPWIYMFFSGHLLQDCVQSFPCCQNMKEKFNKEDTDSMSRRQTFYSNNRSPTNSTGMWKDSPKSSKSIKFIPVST

Structure (SMILES) | IC50 (human V1a receptor) | Ki (human V1a receptor) | further results
C[C@@H](NC(=O)[C@@H](CC(=O)N1CCC(N2CCCCC2)CC1)N1C(=O)[C@@H](N2C(=O)OC[C@@H]2c2cccc(Cl)c2)[C@H]1/C=C/c1ccccc1)c1ccccc1 [Example 256] | 2.8 nM | 1.7 nM | 
O=C(NCc1cc(F)cc(C(F)(F)F)c1)[C@H](CCC(=O)N1CCN(C2CCCCC2)CC1)N1C(=O)[C@@H](N2C(=O)OC[C@@H]2c2ccccc2)[C@H]1/C=C/c1ccccc1 [Example 179] |  | 0.51 nM | 
O=C(NCc1cccc(C(F)(F)F)c1)C(CC(=O)N1CCN(CCN2CCCC2)CC1)N1C(=O)C(N2C(=O)OCC2c2ccccc2)C1C=Cc1ccccc1 (stereo not shown) [Example 78] | < 100 nM |  | 
O=C(NCc1ccccc1C(F)(F)F)[C@H](CCC(=O)N1CCN(C2CCCCC2)CC1)N1C(=O)[C@@H](N2C(=O)OC[C@@H]2c2ccccc2)[C@H]1/C=C/c1ccccc1 [Example 182] |  | 0.93 nM | 
O=C(C(COCc1ccccc1)N1C(=O)C(N2C(=O)OCC2c2ccccc2)C1C=Cc1ccccc1)N1CCC(CN2CCCCC2)CC1 (stereo not shown) [Example 233A] |  | 11.6 nM | 
O=C(CCC(C(=O)NCc1cccc(C(F)(F)F)c1)N1C(=O)C(N2C(=O)OCC2c2ccccc2)C1C=Cc1ccccc1)NCCN1CCCCC1 (stereo not shown) [Example 87] | 15 nM |  | 
O=C(N[C@@H]1CCCc2ccccc21)[C@H](CCC(=O)N1CCN(C2CCCCC2)CC1)N1C(=O)[C@@H](N2C(=O)OC[C@@H]2c2ccccc2)[C@H]1/C=C/c1cccs1 [Example 255] | 1.9 nM | 1.2 nM | 
O=C(NCc1cccc(Cl)c1Cl)[C@H](CCC(=O)N1CCN(C2CCCCC2)CC1)N1C(=O)[C@@H](N2C(=O)OC[C@@H]2c2ccccc2)[C@H]1/C=C/c1ccccc1 [Example 176] |  | 0.38 nM | 
O=C(NCc1cccc(C(F)(F)F)c1)[C@H](CCC(=O)N1CCN(C2CCCCC2)CC1)N1C(=O)[C@@H](N2C(=O)OC[C@@H]2c2ccccc2)[C@H]1/C=C/c1ccccc1 [Example 120H] | 2.75 nM | 1.68 nM | 
O=C(N[C@@H]1CCCc2ccccc21)[C@H](CCC(=O)N1CCN(C2CCCCC2)CC1)N1C(=O)[C@@H](N2C(=O)OC[C@@H]2c2ccccc2)[C@H]1/C=C/c1ccco1 [Example 254] | 10 nM | 6.2 nM | 
CCCCN(Cc1ccccc1)C(=O)[C@H](CCC(=O)N1CCN(C2CCCCC2)CC1)N1C(=O)[C@@H](N2C(=O)OC[C@@H]2c2ccccc2)[C@H]1/C=C/c1ccccc1 [Example 198] | ~100 nM |  | 
O=C(NCc1cc(Cl)cc(Cl)c1)[C@H](CCC(=O)N1CCN(C2CCCCC2)CC1)N1C(=O)[C@@H](N2C(=O)OC[C@@H]2c2ccccc2)[C@H]1/C=C/c1ccccc1 [Example 185] | 1.27 nM | 0.82 nM | 
O=C(NCc1cccc(Cl)c1)[C@H](CCC(=O)N1CCN(C2CCCCC2)CC1)N1C(=O)[C@@H](N2C(=O)OC[C@@H]2c2ccccc2)[C@H]1/C=C/c1ccccc1 [Example 187] |  | 0.66 nM | 
CNC1=Nc2ccc(Cl)cc2C(c2ccccc2)=[N+]([O-])C1 [CDP, chlordiazepoxide] |  |  | Distance (traveled in the interaction zone, difference score Post-Pretest) (C57B1/6J males): 1.0 ± 5; Time (in the interaction zone, difference score Post-Pretest) (C57B1/6J males): 0.0 ± 5^
O=C(NC1CCc2ccccc21)C(CCC(=O)N1CCN(C2CCCCC2)CC1)N1C(=O)C(N2C(=O)OCC2c2ccccc2)C1C=Cc1ccccc1 (mixture of isomers) [Example 216] | 1.83 nM | 1.12 nM | 
CC(NC(=O)C(CC(=O)N1CCC(N2CCCCC2)CC1)N1C(=O)C(N2C(=O)OCC2c2ccccc2)C1C=Cc1ccccc1)c1ccccc1.Cl (stereo not shown) [AVN246-HCl] |  |  | Distance (traveled in the interaction zone, difference score Post-Pretest) (C57B1/6J males): 22 ± 6; Time (in the interaction zone, difference score Post-Pretest) (C57B1/6J males): 35 ± 10; effect on deficits in social interaction produced by chronic subordination (C57B1/6J males; mice, 28-day treatment regimen): significantly increased both distance traveled and time in the interaction zone
O=C(NCc1cc(C(F)(F)F)cc(C(F)(F)F)c1)[C@H](CCC(=O)N1CCN(C2CCCCC2)CC1)N1C(=O)[C@@H](N2C(=O)OC[C@@H]2c2ccccc2)[C@H]1/C=C/c1ccccc1 [Example 188] |  | 4.45 nM | 
CC(C(=O)NCc1cccc(C(F)(F)F)c1)(C(=O)N1CCC(N2CCCCC2)CC1)N1C(=O)[C@@H](N2C(=O)OC[C@@H]2c2ccccc2)[C@H]1/C=C/c1ccccc1 (mixture of isomers) [Example 234, (2RS)-[4-(piperidinyl)piperidinylcarbonyl]-2-methyl-2-[3(S)-(4(S)-phenyloxazolidin-2-on-3-yl)-4(R)-(2-styryl)azetidin-2-on-1-yl]acetic acid N-(3-trifluoromethylbenzyl)amide] | 2.37 nM | 1.45 nM | 
O=C(NCc1cccc(C(F)(F)F)c1F)[C@H](CCC(=O)N1CCN(C2CCCCC2)CC1)N1C(=O)[C@@H](N2C(=O)OC[C@@H]2c2ccccc2)[C@H]1/C=C/c1ccccc1 [Example 180] |  | 0.2 nM | 
O=C(NCc1cccc(C(F)(F)F)c1)[C@H](CCC(=O)N1CCC(CN2CCCCC2)CC1)N1C(=O)[C@@H](N2C(=O)OC[C@@H]2c2ccccc2)[C@H]1/C=C/c1ccccc1 [Example 120E] | 3.2 nM | 1.95 nM | 
O=C(NCc1cc(C(F)(F)F)ccc1F)[C@H](CCC(=O)N1CCN(C2CCCCC2)CC1)N1C(=O)[C@@H](N2C(=O)OC[C@@H]2c2ccccc2)[C@H]1/C=C/c1ccccc1 [Example 177] |  | 0.41 nM | 
CN(Cc1cccc(C(F)(F)F)c1)C(=O)[C@@H](CC(=O)N1CCC(N2CCCCC2)CC1)N1C(=O)[C@@H](N2C(=O)OC[C@@H]2c2ccccc2)[C@H]1/C=C/c1cccc(Cl)c1 [Example 247] | 0.6 nM | 0.39 nM | 
